Values after ≈ are worked out from the molar mass of the structure shown. Read-outs that look alike come from different tables or passages of the source.
Tests used:
Type in all cases: physicochemical
[1] = First set of competition of stabilities between crystal form K and crystal form F (suspension, different water activities, XRPD); details: room temperature
Protocol: After 12 hours of stirring under room temperature, the solid was isolated by centrifugation and the XRPD thereof was tested.

[2] = Storage stability test, physical stability by XRPD; details: for XRPD pattern after storage (physical stability): one week of storage, 25° C./60% R.H. and 40° C./75% R.H.
Protocol: In the following examples, the XRPD of the crystal form was determined using a PANalytical Empyrean X-ray powder diffraction analyzer, the parameters are summarized in Table 1.

[3] = Solubility in water, FaSSIF, FeSSIF and SGF
Protocol: Wherein FaSSIF and FeSSIF were prepared according to the method described in the literature: Study of a Standardized Taurocholate-Lecithin Powder for Preparing the Biorelevant Media FeSSIF and FaSSIF (Kloefer, B., van Hoogevest, P., Moloney, R., Kuentz, M., Leigh, M. L., & Dressman, J. (2010). Dissolution Technologies, August 17(3), 6-14. SGF was prepared according to the method described in the literature Albendazole Generics-A Comparative In Vitro Study (Galia E., Horton, J and Dressman J. (1999) Pharmaceutical Research, 16 (12), […]). The test results are summarized in Table 6.

[4] = Storage stability test, chemical content by HPLC; details: for Initial content: before storage; for Chemical stability, 25° C./60% R.H. One week / Chemical stability, 40° C./75% R.H. One week: chemical content as % of initial content; for Chemical content after storage (in words): one week, 40° C./75% R.H.
[5] = Second set of competition of stabilities between crystal form K and crystal form F (solid mixture stored 10 days, XRPD)
From the text: Then two samples were placed in different environments for 10 days and were subjected to XRPD test respectively.

[6] = Competition of stability between crystal form K and crystal form G in water (XRPD); details: 12 hours stirring, room temperature
Protocol: After 12 hours of stirring under room temperature, the solid was separated by centrifugation and was subjected to XRPD test, the results are shown in FIG. 20.

SMILES | XRPD pattern after storage (physical stability) [2] | Solubility ([3]; FaSSIF, pH 6.5) [mg/mL] | Solubility ([3]; FeSSIF, pH 5.0) [mg/mL] | Solubility ([3]; SGF, pH 1.8) [mg/mL] | Solubility ([3]; Water, pH 7.4) [mg/mL] | Initial content [4] [%] | Chemical stability, 25° C./60% R.H. One week [4] [%] | Chemical stability, 40° C./75% R.H. One week [4] [%] | Chemical content after storage (in words) [4] | also measured
CN(C)C/C=C/C(=O)Nc1cc2c(Nc3ccc(F)c(Cl)c3)ncnc2cc1OC(F)F [Crystal form K] | basically the same | 8.36 (≈ 17.9 mM) | 1.24 (≈ 2.66 mM) | >9.95 | >10.02 | 100.0 | 99.9 | 99.8 | stable | Water activity at which crystal form K is thermodynamically more stable than crystal form F [1]: greater than or equal to 0.15; Crystal form after competition with crystal form F ([1]; water activity 0.00, IPA, 12 hours stirring): Crystal form F; Crystal form after competition with crystal form F ([1]; water activity 0.15, IPA:H2O 99:1, 12 hours stirring): Crystal form K; Crystal form after competition with crystal form F ([1]; water activity 0.39, IPA:H2O 24:1, 12 hours stirring): Crystal form K; Crystal form after competition with crystal form F ([1]; water activity 0.60, ACN:H2O 19:1, 12 hours stirring): Crystal form K; Crystal form after competition with crystal form F ([1]; water activity 0.80, ACN:H2O 9:1, 12 hours stirring): Crystal form K; XRPD pattern after storage (physical and chemical stability) ([2]; 6 months of storage, 40° C./75% R.H.): basically the same
CN(C)C/C=C/C(=O)Nc1cc2c(Nc3ccc(F)c(Cl)c3)ncnc2cc1OC(F)F [Crystal form E] |  |  |  |  |  | 100.0 | 99.8 | 99.5 |  | 
CN(C)C/C=C/C(=O)Nc1cc2c(Nc3ccc(F)c(Cl)c3)ncnc2cc1OC(F)F [Crystal form F] | basically the same | 2.44 (≈ 5.24 mM) | 0.57 (≈ 1.22 mM) | >10.65 | >9.81 | 100.0 | 99.8 | 99.7 | stable | Crystal form after storage of crystal form F mixed with about 1% crystal form K ([5]; 25° C., 60% R.H.): form F; Crystal form after storage of crystal form F mixed with about 1% crystal form K ([5]; 25° C., 60% R.H., listed as crystal form F): did not change; Crystal form after storage of crystal form F mixed with about 1% crystal form K ([5]; 40° C., 75% R.H.): form K; Crystal form after storage of crystal form F mixed with about 1% crystal form K ([5]; 40° C., 75% R.H., listed as crystal form F): converted to the crystal form K

The next lines start with results.

XRPD pattern after storage (physical stability) [2] | Solubility ([3]; FaSSIF, pH 6.5) [mg/mL] | Solubility ([3]; FeSSIF, pH 5.0) [mg/mL] | Solubility ([3]; SGF, pH 1.8) [mg/mL] | Solubility ([3]; Water, pH 7.4) [mg/mL] | Initial content [4] [%] | Chemical stability, 25° C./60% R.H. One week [4] [%] | Chemical stability, 40° C./75% R.H. One week [4] [%] | Chemical content after storage (in words) [4] | SMILES | also measured
changed significantly | 0.03 (≈ 0.0644 mM) | 0.10 (≈ 0.215 mM) |  | <0.0025 | 100.0 | 99.8 | 94.8 |  | CN(C)C/C=C/C(=O)Nc1cc2c(Nc3ccc(F)c(Cl)c3)ncnc2cc1OC(F)F [Free base] | Long-term storage stability (in words) [2]: poor; Water solubility (in words) [3]: poor; Solubility ([3]; SGF, pH 1.8, simulated gastric fluid, thermodynamic from solid, SGF, pH 1.8, read-out: Solubility): 8.37 mg/mL (≈ 18 mM); Chemical stability, 40° C./75% R.H. One week ([4]; listed as free base): 94.8%
 |  |  |  |  | 100.0 | 99.8 | 99.6 | stable | CN(C)C/C=C/C(=O)Nc1cc2c(Nc3ccc(F)c(Cl)c3)ncnc2cc1OC(F)F [Crystal form G] | Crystal form after competition with crystal form K in saturated water solution [6]: converted to crystal form K

Source: patent publication US10065931B2, “Quinazolin crotyl compound dimaleate crystals and preparation methods and uses thereof” (HANGZHOU HUADONG MEDICINE GROUP BIOPHARMACEUTICAL CO., LTD., priority 2015, dated 2018)
